Assay results reported in patent US20160228444A1, “NUCLEOSIDE ANALOGS AND USES THEREOF” (Ramot at Tel-Aviv University Ltd., priority 2015, published 2016).

Key:
[1] = test system: TNF-α; experiment: Serum TNF-α in U251 xenograft mice (ELISA); assay type: in vivo; conditions: co-administration with doxorubicin, FIG. 8C
Method: AN446 was tested in vivo using a xenograft of glioblastoma (U251 cells) in mice.

[2] = test system: acetylated H3 histone in U251 glioblastoma cells; experiment: Histone H3 acetylation (Western blot), 24 hours; assay type: cell-based, human; conditions: FIG. 12
Method: The effects of the abovementioned HDAC inhibitors on histone acetylation were also compared. U251 and H9C2 cells were treated with the HDAC inhibitors for 24 hours (according to procedures described hereinabove with respect to FIGS. 9 and 10), and then subjected to Western blot analysis.

[3] = test system: TLR4; experiment: TLR4 gene expression in MDA-MB-231 cells (qRT-PCR); assay type: cell-based, human; conditions: FIG. 7C
Method: The effect of AN446 on inflammation-associated pathways was evaluated in the monocytic THP1 cell line and in the MDA-MB-231 breast carcinoma cell line. Supernatants of treated THP1 cells were collected and IL-6, IL-10 and TNF-α concentrations were quantified by ELISA (R&D systems). TLR4 expression in THP1 cells was assessed using fluorescent anti-TLR4 antibodies and FACS analysis. In addition, gene expression for MCP-1, TNF-α and TLR4 in MDA-MB-231 was evaluated by qRT-PCT, following treatment with AN446 and/or paclitaxel.

For `CCCC(CCC)C(=O)Nc1nc2c(ncn2COCCOC(=O)C(CCC)CCC)c(=O)[nH]1` [AN446, N-valproyl-9-(2-valproyloxy)ethoxymethyl-guanine], the “doxorubicin-induced rise in serum levels of TNF-α” value [1] was “prevented a doxorubicin-induced rise in serum levels of TNF-α”, the “histone acetylation in U251 cancer cells” value [2] was “increased histone acetylation considerably” and the “paclitaxel-induced increase in expression of TLR4” value ([3]; combination with paclitaxel) was “significantly attenuated”. For the same compound, the “expression of TLR4” value ([3]; single agent) was “reduced expression of TLR4”.
